This note sets out measurements from the supplement of paper PMC12076712.

Targets include CAMKK2 (UniProt Q96RR4); MARK2 (UniProt Q7KZI7); UniProt O96017; UniProt P19784; UniProt Q14289; UniProt Q16512; UniProt Q92918.
Common to all, as to experiment: pIC50, kinobeads binding competition
Details in all cases: cell material: Jurkat lysate

The next assay deals with T1, LATS1 (UniProt O95835).
T1 sequence (whole entry): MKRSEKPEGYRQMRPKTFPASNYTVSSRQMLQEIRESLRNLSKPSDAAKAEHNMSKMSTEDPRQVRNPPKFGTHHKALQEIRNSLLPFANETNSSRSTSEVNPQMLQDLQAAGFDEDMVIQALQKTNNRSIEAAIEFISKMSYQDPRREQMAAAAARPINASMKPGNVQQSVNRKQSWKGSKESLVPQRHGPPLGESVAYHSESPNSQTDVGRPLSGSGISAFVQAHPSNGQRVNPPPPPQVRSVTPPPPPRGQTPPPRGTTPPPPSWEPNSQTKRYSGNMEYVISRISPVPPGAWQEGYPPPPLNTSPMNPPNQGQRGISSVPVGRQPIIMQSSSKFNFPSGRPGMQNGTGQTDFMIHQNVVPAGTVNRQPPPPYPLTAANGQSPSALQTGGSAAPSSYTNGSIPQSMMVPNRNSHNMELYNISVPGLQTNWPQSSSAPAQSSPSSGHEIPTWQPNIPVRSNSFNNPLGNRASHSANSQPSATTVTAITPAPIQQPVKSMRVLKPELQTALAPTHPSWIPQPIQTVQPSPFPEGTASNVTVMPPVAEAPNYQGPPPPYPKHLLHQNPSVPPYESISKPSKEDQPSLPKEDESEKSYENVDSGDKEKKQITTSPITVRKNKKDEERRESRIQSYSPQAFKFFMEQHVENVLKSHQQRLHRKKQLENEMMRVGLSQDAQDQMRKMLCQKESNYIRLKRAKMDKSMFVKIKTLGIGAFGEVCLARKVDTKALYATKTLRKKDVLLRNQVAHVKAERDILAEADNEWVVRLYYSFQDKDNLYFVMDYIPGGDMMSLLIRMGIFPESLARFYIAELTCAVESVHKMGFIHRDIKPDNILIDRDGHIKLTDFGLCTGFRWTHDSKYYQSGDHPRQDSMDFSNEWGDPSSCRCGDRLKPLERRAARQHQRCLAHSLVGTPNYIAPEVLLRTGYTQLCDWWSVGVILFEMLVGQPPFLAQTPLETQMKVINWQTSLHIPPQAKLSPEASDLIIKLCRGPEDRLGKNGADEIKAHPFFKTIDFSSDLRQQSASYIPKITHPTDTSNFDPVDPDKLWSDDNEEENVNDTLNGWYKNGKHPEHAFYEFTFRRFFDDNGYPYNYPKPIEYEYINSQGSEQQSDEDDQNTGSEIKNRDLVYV

Another assay concerns the target T2, MERTK (UniProt Q12866).
T2 sequence (whole entry): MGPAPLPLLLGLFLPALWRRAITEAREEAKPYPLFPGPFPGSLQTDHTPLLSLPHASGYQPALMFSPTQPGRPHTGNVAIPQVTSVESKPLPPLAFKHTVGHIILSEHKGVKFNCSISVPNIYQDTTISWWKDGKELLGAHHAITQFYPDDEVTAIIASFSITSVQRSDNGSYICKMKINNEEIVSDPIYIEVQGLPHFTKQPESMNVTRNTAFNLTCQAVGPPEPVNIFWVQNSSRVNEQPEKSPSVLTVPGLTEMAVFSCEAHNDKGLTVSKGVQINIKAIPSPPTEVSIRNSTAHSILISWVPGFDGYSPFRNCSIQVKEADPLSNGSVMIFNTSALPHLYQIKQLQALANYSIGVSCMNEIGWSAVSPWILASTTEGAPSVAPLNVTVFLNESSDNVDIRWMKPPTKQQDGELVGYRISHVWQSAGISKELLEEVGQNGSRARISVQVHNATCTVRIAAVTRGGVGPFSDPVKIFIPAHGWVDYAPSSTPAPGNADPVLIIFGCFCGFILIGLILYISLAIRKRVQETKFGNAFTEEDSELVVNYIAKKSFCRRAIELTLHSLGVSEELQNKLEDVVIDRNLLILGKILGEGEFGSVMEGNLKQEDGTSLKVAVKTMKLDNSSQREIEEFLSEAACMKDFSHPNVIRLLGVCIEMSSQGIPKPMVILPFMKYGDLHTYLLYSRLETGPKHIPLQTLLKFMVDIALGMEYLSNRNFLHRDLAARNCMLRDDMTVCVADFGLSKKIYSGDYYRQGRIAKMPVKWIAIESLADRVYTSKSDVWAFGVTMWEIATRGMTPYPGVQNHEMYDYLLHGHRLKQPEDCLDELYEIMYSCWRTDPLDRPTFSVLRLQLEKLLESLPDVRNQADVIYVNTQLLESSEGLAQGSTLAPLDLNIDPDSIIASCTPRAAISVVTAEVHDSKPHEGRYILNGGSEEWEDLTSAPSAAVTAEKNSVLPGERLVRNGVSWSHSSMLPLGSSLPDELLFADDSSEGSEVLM

A further assay concerns the target T3, UniProt O15530.
T3 sequence (whole entry): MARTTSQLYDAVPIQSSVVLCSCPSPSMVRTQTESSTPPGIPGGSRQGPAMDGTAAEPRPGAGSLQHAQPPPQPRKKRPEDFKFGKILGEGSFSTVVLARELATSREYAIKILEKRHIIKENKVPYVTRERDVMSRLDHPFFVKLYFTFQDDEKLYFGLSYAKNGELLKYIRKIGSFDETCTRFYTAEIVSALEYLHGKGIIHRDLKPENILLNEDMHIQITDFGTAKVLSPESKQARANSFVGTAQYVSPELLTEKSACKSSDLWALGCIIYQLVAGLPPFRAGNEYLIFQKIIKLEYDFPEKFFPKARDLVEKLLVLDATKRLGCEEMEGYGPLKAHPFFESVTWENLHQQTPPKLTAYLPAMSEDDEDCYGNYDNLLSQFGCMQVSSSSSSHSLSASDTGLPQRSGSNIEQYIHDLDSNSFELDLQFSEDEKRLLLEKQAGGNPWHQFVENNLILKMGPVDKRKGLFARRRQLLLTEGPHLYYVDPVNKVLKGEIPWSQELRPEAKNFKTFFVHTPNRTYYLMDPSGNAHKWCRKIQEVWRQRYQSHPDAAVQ

± gives the standard deviation of the averaged measurements.

Turning to `CCc1cnn2c(NCc3ccc[n+]([O-])c3)cc(N3CCCC[C@H]3CCO)nc12` [dinaciclib], the pIC50 is 5.245 ± 0.035 at CAMKK2; below 4.52 at LATS1; below 4.52 on MARK2; below 4.52 on MERTK; below 4.52 at UniProt O15530; below 4.52 at UniProt O96017. In addition, the pIC50 at UniProt P19784, at UniProt Q14289, on UniProt Q16512 and on UniProt Q92918 was below 4.52 throughout.
